This assay deals with GA 0055 tumor. The assay is described as follows: Anti-tumor activity against GA 0055 gastric tumor PDX in HuMice and NOD/SCID mice. The assay is classed as in vivo, mouse. The source says:
In yet another example of the utility of the HuPrime™ 3.0 mouse model (PDX human immunocompetent NOD/SCID mouse with CD34^+ hSC+PDX gastric tumor), patient cells derived from a human patient diagnosed with over-expressing gastric cancer, GA 0055, were engrafted into HuPrime™ 3.0 mice.
The HuPrime™ 3.0 mice engrafted with GA 0055 were divided into six groups, four mice each. Three groups were engrafted with UCB human stem cells and three groups were not.
Patient tumor fragments of NSCLC or gastric tumor tissue derived from diseased seed mice were engrafted 2.5 weeks after the CD34+ cell inoculation in order to create patient derived xenograft (PDX) models. Solid tumor sample fragments from seed mice inoculated with selected primary human lung or gastric cancer tissues were harvested and used for inoculation into mice. Each mouse was inoculated subcutaneously at the right flank with one tumor fragment (2-3 mm in diameter) for tumor development. The treatments were started when mean tumor size reached approximately 100-150 mm^3 The transplanted animals were monitored by weekly bleed and FACS analysis for hCD45^+ cells in peripheral blood.

In the case of `N.N.[Cl][Pt][Cl]` [Cisplatin], under “5 mg/kg Cisplatin, H&E stained cross-section (40x10), FIG. 6A”, the “treatment response, stained GA 0055 tumor cross-sections” value is given as “effective”. For the same compound, the tumor growth result (HuMice mice (reconstituted human immunocompetent) engrafted with GA 0055, with vs without treatment, FIG. 7A, 7C) is recorded as “slowed tumor growth”.

The values are drawn from patent US20150283269A1, “RECONSTITUTED HUMAN IMMUNE SYSTEM IN A PATIENT DERIVED XENOGRAFT MOUSE MODEL” (Crown Bioscience Inc., priority 2014, published 2015).
